Test results reported in patent US20250346564A1 (ARase Therapeutics Inc., priority 2022, published 2025).

What was measured:
PARG [1] = biological target: T1, PARG (Homo sapiens (Human), UniProt Q86W56); assay: PARG target engagement cellular assay (PAR polymer immunostaining after cisplatin); type: cell-based; conditions: HCC1806 cells treated with cisplatin, then compound titration for 1 h; PAR polymer antibody readout
Description: Example a. Inhibition of PARG Target Engagement Cellular Assay
The ability of the compounds of the Examples to inhibit PARG was determined as described below. After treating HCC1806 cells with cisplatin, followed by PARG inhibitor compound titration for 1 h, the cells were fixed in formaldehyde. The cells were permeabilized, blocked, and incubated with antibody against poly (ADP) ribose (PAR) polymer. The cells were then washed and incubated with IR 800 conjugated secondary antibody together with TO-PRO3 iodide nuclear stain. After washing, images of the cells were captured and analyzed on Odyssey CLx instrument and analyzed using LI-COR image studio software.

PARG [2] = biological target: T1, PARG; assay: PARG TFMU assay (4-(trifluoromethyl)umbelliferone substrate); type: biochemical; conditions: PARG 250 pM or 2 nM, 10-point dose response
Description: Example C. Inhibition of PARG TEMU Assay
The ability of the compounds of the Examples to inhibit PARG activity in 4. (trifluoromethyl)umbelliferone (TFMU) assay was determined as described below. PARG inhibitors were added into 384 well plate for a 10-point dose response curve at 1:3 dilutions. TFMU PARG substrate and PARG (250 pM or 2 nM) were then added to the plate to initiate enzymatic reaction. After incubation with the reagent, […] was read. IC50 values were calculated using set control points for 100% inhibition as no enzyme and 0% inhibition 250 pM or 2 nM of PARG enzyme.

T1 sequence (Q86W56 whole entry): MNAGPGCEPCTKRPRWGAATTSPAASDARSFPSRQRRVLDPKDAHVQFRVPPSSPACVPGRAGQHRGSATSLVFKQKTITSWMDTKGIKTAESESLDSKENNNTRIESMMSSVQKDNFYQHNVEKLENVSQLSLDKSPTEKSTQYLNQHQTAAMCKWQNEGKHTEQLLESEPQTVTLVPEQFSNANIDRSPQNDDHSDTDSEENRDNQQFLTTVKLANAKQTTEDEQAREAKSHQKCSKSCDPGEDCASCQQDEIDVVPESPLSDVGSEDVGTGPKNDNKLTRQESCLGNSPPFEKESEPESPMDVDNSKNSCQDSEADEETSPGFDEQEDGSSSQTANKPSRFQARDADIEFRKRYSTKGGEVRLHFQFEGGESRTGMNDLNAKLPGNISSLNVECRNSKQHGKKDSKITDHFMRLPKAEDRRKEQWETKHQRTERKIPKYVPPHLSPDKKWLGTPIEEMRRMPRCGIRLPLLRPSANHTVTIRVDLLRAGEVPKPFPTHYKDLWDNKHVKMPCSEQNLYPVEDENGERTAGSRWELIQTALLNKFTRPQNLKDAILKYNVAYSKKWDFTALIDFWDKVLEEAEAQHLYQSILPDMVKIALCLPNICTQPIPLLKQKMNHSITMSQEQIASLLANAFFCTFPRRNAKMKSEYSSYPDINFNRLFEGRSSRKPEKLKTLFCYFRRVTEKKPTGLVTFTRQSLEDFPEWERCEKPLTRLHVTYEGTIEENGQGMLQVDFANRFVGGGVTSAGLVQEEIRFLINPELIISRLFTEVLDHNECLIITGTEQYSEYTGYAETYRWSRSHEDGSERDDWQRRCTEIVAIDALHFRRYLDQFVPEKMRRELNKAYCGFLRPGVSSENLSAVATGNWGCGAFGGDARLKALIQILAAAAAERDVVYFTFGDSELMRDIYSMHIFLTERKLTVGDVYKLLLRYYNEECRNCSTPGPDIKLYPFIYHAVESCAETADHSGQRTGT

IC50 (PARG [1]) [µM]	IC50 (PARG [2]) [nM]	SMILES
> 100	≥ 5000	CCn1c(=O)c2cc(S(=O)(=O)NC3(C)CCC3)ccc2n(CC)c1=O [Example 7, 1,3-diethyl-N-(1-methylcyclobutyl)-2,4-dioxoquinazoline-6-sulfonamide]
10 to 100	50 to 500	CCn1c(=O)c2cc(S(=O)(=O)NC3(CF)COC3)ccc2n(CC)c1=O [Example 20, 1,3-diethyl-N-(3-(fluoromethyl)oxetan-3-yl)-2,4-dioxo-1,2,3,4-tetrahydroquinazoline-6-sulfonamide]
10 to 100	50 to 500	CCn1c(=O)c2cc(S(=O)(=O)NC3(C)COC3)ccc2n(CC)c1=O [Example 4, 1,3-diethyl-N-(3-methyloxetan-3-yl)-2,4-dioxoquinazoline-6-sulfonamide]
> 100	≥ 5000	O=C(O)/C=C/Cn1c(=O)[nH]c2ccc(S(=O)(=O)NC34CC(C3)C4)cc2c1=O [Example 2, (2E)-4-[6-({bicyclo[1.1.1]pentan-1-yl}sulfamoyl)-2,4-dioxo-1H-quinazolin-3-yl]but-2-enoic Acid]
> 100	≥ 5000	CCn1c(=O)c2cc(S(=O)(=O)N[C@@]3(C)C[C@H]3CC#N)ccc2n(CC)c1=O (racemic) [Example 16, N-((1SR,2SR)-2-(cyanomethyl)-1-methylcyclopropyl)-1,3-diethyl-2,4-dioxo-1,2,3,4-tetrahydroquinazoline-6-sulfonamide]
> 100	500 to 5000	COC(=O)/C=C/CCn1c(=O)[nH]c2ccc(S(=O)(=O)NC3(C)COC3)cc2c1=O [Example 12, methyl (E)-5-(6-(N-(3-methyloxetan-3-yl)sulfamoyl)-2,4-dioxo-1,4-dihydroquinazolin-3(2H)-yl)pent-2-enoate]
10 to 100	500 to 5000	CCn1c(=O)c2cc(S(=O)(=O)NC3(C#N)COC3)ccc2n(CC)c1=O [Example 10, N-(3-cyanooxetan-3-yl)-1,3-diethyl-2,4-dioxoquinazoline-6-sulfonamide]
> 100	500 to 5000	NC(=O)/C=C/Cn1c(=O)[nH]c2ccc(S(=O)(=O)NC34CC(C3)C4)cc2c1=O [Example 3, (2E)-4-[6-({bicyclo[1.1.1]pentan-1-yl}sulfamoyl)-2,4-dioxo-1H-quinazolin-3-yl]but-2-enamide]
> 100	500 to 5000	CCn1c(=O)c2cc(S(=O)(=O)NC3(C(F)F)COC3)ccc2n(CC)c1=O [Example 18, N-(3-(difluoromethyl)oxetan-3-yl)-1,3-diethyl-2,4-dioxo-1,2,3,4-tetrahydroquinazoline-6-sulfonamide]
> 100	500 to 5000	CCn1c(=O)c2cc(S(=O)(=O)NC3(C)CSC3)ccc2n(CC)c1=O [Example 5, 1,3-diethyl-N-(3-methylthietan-3-yl)-2,4-dioxoquinazoline-6-sulfonamide]
> 100	≥ 5000	CC[C@H]1C[C@@]1(C)NS(=O)(=O)c1ccc2c(c1)c(=O)n(CC)c(=O)n2CC (single isomer, unassigned) [Example 13D]
> 100	≥ 5000	CCOC(=O)/C=C/Cn1c(=O)[nH]c2ccc(S(=O)(=O)NC34CC(C3)C4)cc2c1=O [Example 1, ethyl (2E)-4-[6-({bicyclo[1.1.1]pentan-1-yl}sulfamoyl)-2,4-dioxo-1H-quinazolin-3-yl]but-2-enoate]
> 100	500 to 5000	CCn1c(=O)c2cc(S(=O)(=O)N[C@@]3(C)C[C@H]3CCO)ccc2n(CC)c1=O (single isomer, unassigned) [Example 15A]
10 to 100	< 50	Cc1ncc(Cn2c(=O)c3cc(S(=O)(=O)NC4(C)COC4)ccc3n(Cc3sc(C)nc3C)c2=O)s1 [Example 14, 1-((2,4-dimethylthiazol-5-yl)methyl)-N-(3-methyloxetan-3-yl)-3-((2-methylthiazol-5-yl)methyl)-2,4-dioxo-1,2,3,4-tetrahydroquinazoline-6-sulfonamide]
–	≥ 5000	CCn1c(=O)c2cc(S(=O)(=O)N[C@H]3CC[C@@H]3CO)ccc2n(CC)c1=O (single isomer, unassigned) [Example 75]
–	50 to 500	CC(C)C(=O)N1CCN(c2cc(S(=O)(=O)NC3(C)CCC3)cc3c2cnn3-c2nnc(C(F)F)s2)CC1 [Example 21, 1-(5-(difluoromethyl)-1,3,4-thiadiazol-2-yl)-4-(4-isobutyrylpiperazin-1-yl)-N-(1-methylcyclobutyl)-1H-indazole-6-sulfonamide]

IC50 (PARG [1]) [µM]	IC50 (PARG [2]) [nM]	SMILES
–	< 50	CC(C)C(=O)N1CCN(c2cc(S(=O)(=O)NC3(C)COC3)cc3c2cnn3-c2nnc(Br)s2)CC1 [Example 81, 1-(5-bromo-1,3,4-thiadiazol-2-yl)-4-(4-isobutyrylpiperazin-1-yl)-N-(3-methyloxetan-3-yl)-1H-indazole-6-sulfonamide]
10 to 100	50 to 500	CCn1c(=O)c2cc(S(=O)(=O)N[C@@]3(C)CO[C@H]3C)ccc2n(CC)c1=O (single isomer, unassigned) [Example 17A]
10 to 100	500 to 5000	COC(=O)/C=C/Cn1c(=O)[nH]c2ccc(S(=O)(=O)NC3(C)COC3)cc2c1=O [Example 9, methyl (2E)-4-{6-[(3-methyloxetan-3-yl)sulfamoyl]-2,4-dioxo-1H-quinazolin-3-yl}but-2-enoate]
–	< 50	CC(C)C(=O)N1CCN(c2cc(S(=O)(=O)N[C@@]3(C)CO[C@H]3C)cc3c2cnn3-c2nnc(C(F)F)s2)CC1 (single isomer, unassigned) [Example 27]
> 100	–	CCn1c(=O)c2cc(S(=O)(=O)NC3(C)CCOC3)ccc2n(CC)c1=O (stereo not shown) [Example 8, 1,3-diethyl-N-(3-methyloxolan-3-yl)-2,4-dioxoquinazoline-6-sulfonamide]
–	50 to 500	COc1cc(S(=O)(=O)NC2(C)COC2)cc2c1cnn2-c1nnc(C(F)F)s1 [Example 73, 1-(5-(difluoromethyl)-1,3,4-thiadiazol-2-yl)-4-methoxy-N-(3-methyloxetan-3-yl)-1H-indazole-6-sulfonamide]
> 100	500 to 5000	CNC(=O)/C=C/Cn1c(=O)[nH]c2ccc(S(=O)(=O)NC3(C)COC3)cc2c1=O [Example 19, (E)-N-methyl-4-(6-(N-(3-methyloxetan-3-yl)sulfamoyl)-2,4-dioxo-1,4-dihydroquinazolin-3(2H)-yl) but-2-enamide]
–	< 50	O=C(C1CCCC1)N1CCN(c2cc(S(=O)(=O)NC3(CF)COC3)cc3c2cnn3-c2nnc(C(F)F)s2)CC1 [Example 34, 4-(4-(cyclopentanecarbonyl)piperazin-1-yl)-1-(5-(difluoromethyl)-1,3,4-thiadiazol-2-yl)-N-(3-(fluoromethyl)oxetan-3-yl)-1H-indazole-6-sulfonamide]
–	< 50	CC(C)C(=O)N1CCN(c2cc([S@TB20](=O)(=O)NC3(CF)COC3)cc3c2cnn3-c2nnc(C(F)F)s2)CC1 [Example 22, 1-(5-(difluoromethyl)-1,3,4-thiadiazol-2-yl)-N-(3-(fluoromethyl)oxetan-3-yl)-4-(4-isobutyrylpiperazin-1-yl)-1H-indazole-6-sulfonamide]
–	500 to 5000	N#CC1(NS(=O)(=O)c2cc(Cl)c3cnn(-c4nnc(C(F)F)s4)c3c2)COC1 [Example 63, 4-chloro-N-(3-cyanooxetan-3-yl)-1-(5-(difluoromethyl)-1,3,4-thiadiazol-2-yl)-1H-indazole-6-sulfonamide]
–	< 50	CC(C)S(=O)(=O)N1CCN(c2cc(S(=O)(=O)NC3(C)COC3)cc3c2cnn3-c2nnc(C(F)F)s2)CC1 [Example 33, 1-(5-(difluoromethyl)-1,3,4-thiadiazol-2-yl)-4-(4-(isopropylsulfonyl)piperazin-1-yl)-N-(3-methyloxetan-3-yl)-1H-indazole-6-sulfonamide]
–	< 50	N#CC1(NS(=O)(=O)c2cc(N3CCN(C(=O)N4CCCC4)CC3)c3cnn(-c4nnc(C(F)F)s4)c3c2)COC1 [Example 38, N-(3-cyanooxetan-3-yl)-1-(5-(difluoromethyl)-1,3,4-thiadiazol-2-yl)-4-(4-(pyrrolidine-1-carbonyl)piperazin-1-yl)-1H-indazole-6-sulfonamide]
–	< 50	Cc1ncc(Cn2c(=O)c3cc(S(=O)(=O)NC4(CF)COC4)ccc3n(Cc3sc(C)nc3C)c2=O)s1 [Example 28B, 1-((2,4-dimethylthiazol-5-yl)methyl)-N-(3-(fluoromethyl)oxetan-3-yl)-3-((2-methylthiazol-5-yl)methyl)-2,4-dioxo-1,2,3,4-tetrahydroquinazoline-6-sulfonamide]
< 10	500 to 5000	COC(=O)/C=C/Cn1c(=O)c2cc(S(=O)(=O)NC3(C)COC3)ccc2n(CC2COC2)c1=O [Example 11, methyl (2E)-4-{6-[(3-methyloxetan-3-yl)sulfamoyl]-1-(oxetan-3-ylmethyl)-2,4-dioxoquinazolin-3-yl}but-2-enoate]
–	50 to 500	CC1OCC1(C)NS(=O)(=O)c1cc(Cl)c2cnn(-c3nnc(C(F)F)s3)c2c1 (stereo not shown) [Example 71, 4-chloro-1-(5-(difluoromethyl)-1,3,4-thiadiazol-2-yl)-N-(2,3-dimethyloxetan-3-yl)-1H-indazole-6-sulfonamide]
